Measurements reported in patent publication US20040034022A1, “Polymorphic forms/hydrates of n-[4-(3-chloro-4-fluorophenylamino)-7-(3-morpholin-4-ylpropoxy)-quinazolin-6-yl]-acrylamide dihydrochloride” (priority 2000, published 2004).
Structures can show the parent of a compound that is named as a salt. Blank lines part the entries; values can stand above or below the molecule they belong to.

Assay: Temperature stress experiments: thermal stability of the solid forms, purity by HPLC
Format: physicochemical
Conditions: for HPLC Purity Start: solid form before temperature stress; for HPLC Purity: solid
Source text: Temperature Stress Experiments For the investigation of the thermal stability, the solid forms A, B and M are heated in open test tubes (l: 110 mm, d: 5 mm) or in test tubes closed by means of a glass stamp in an oil bath at temperatures and for a period of time as given in the Table. Subsequently, the purity of the remaining products is investigated by means of HPLC methods (column: LunaRP18 (25×0.46 cm); mobile phase: acetonitrile:methanol: 0.02M aq. ammonium acetate:triethylamine (55:5:40:0.05). (s): test tube with glass stamp

HPLC Purity Start (listed as A): 99.28 rel %
HPLC Purity (16 hr, 100° C., then 8 hr, 150° C., (s): test tube with glass stamp, listed as A): 23.45 (s) rel %
HPLC Purity (16 hr, 100° C., then 8 hr, 150° C., open test tube, listed as A): 25.28 rel %
HPLC Purity (7 d, 80° C., (s): test tube with glass stamp, listed as A): 99.02 (s) rel %
HPLC Purity (7 d, 80° C., open test tube, listed as A): 97.51 rel %
SMILES: C=CC(=O)Nc1cc2c(Nc3ccc(F)c(Cl)c3)ncnc2cc1OCCCN1CCOCC1 [Form A, N-[4-(3-chloro-4-fluorophenylamino)-7-(3-morpholin-4-ylpropoxy)-quinazolin-6-yl]-acrylamide Dihydrochloride Form A]

HPLC Purity Start (listed as B): 99.77 rel %
HPLC Purity (16 hr, 100° C., then 8 hr, 150° C., (s): test tube with glass stamp, listed as B): 75.28 (s) rel %
HPLC Purity (16 hr, 100° C., then 8 hr, 150° C., open test tube, listed as B): 75.32 rel %
HPLC Purity (7 d, 80° C., (s): test tube with glass stamp, listed as B): 84.40 (s) rel %
HPLC Purity (7 d, 80° C., open test tube, listed as B): 89.39 rel %
SMILES: C=CC(=O)Nc1cc2c(Nc3ccc(F)c(Cl)c3)ncnc2cc1OCCCN1CCOCC1 [Form B, N-[4-(3-chloro-4-fluorophenylamino)-7-(3-morpholin-4-ylpropoxy)-quinazolin-6-yl]-acrylamide Dihydrochloride Form B]

stability towards the heating of the solid substance (heating at 80° C. or 150° C., in comparison to the forms A or B): more stable form
HPLC Purity Start (listed as M): 99.49 rel %
HPLC Purity (16 hr, 100° C., then 8 hr, 150° C., (s): test tube with glass stamp, listed as M): 99.43 (s) rel %
HPLC Purity (16 hr, 100° C., then 8 hr, 150° C., open test tube, listed as M): 99.43 rel %
HPLC Purity (8 d, 80° C., (s): test tube with glass stamp): 99.61 (s) rel %
HPLC Purity (8 d, 80° C., open test tube): 99.62 rel %
SMILES: C=CC(=O)Nc1cc2c(Nc3ccc(F)c(Cl)c3)ncnc2cc1OCCCN1CCOCC1 [Form M, N-[4-(3-chloro-4-fluorophenylamino)-7-(3-morpholin-4-ylpropoxy)-quinazolin-6-yl]-acrylamide Dihydrochloride Form M]
